Assay results: PMC6104183, “How Female Mice Attract Males: A Urinary Volatile Amine Activates a Trace Amine-Associated Receptor That Induces Male Sexual Interest” (Frontiers in Pharmacology, 2018)

Molecular target: T1, TAAR3 (Mus musculus, UniProt Q5QD16)
T1 construct: transiently expressed with Galpha-olf in HEK293 cells
T1 sequence (Q5QD16 1-343): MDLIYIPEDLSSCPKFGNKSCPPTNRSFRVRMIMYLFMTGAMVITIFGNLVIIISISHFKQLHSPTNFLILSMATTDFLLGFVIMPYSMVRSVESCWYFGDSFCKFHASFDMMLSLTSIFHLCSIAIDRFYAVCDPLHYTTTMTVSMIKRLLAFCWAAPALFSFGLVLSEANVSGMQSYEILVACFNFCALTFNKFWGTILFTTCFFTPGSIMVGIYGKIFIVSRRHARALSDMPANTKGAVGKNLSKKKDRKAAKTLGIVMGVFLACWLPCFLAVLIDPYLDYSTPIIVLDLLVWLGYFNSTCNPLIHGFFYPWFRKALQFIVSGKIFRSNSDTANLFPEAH
Experiment: cAMP accumulation, HEK293 cells, luminescence
Type: cell-based

`CC(C)CN` [isobutylamine] was tested. Which EC50 did it give?
Its EC50 is 32 nM.
